Test results as given in patent publication US20210139441A1 (priority 2017, published 2021).

Test system: Crl:CD(SD) rats
Conditions: rat, in vivo

FC(F)(F)[C@@H]1O[C@@H]1C(F)(F)F [(2R,3S)-2,3-bis(trifluoromethyl)oxirane, Cis-2,3-bis(trifluoromethyl)oxirane]
Fractional mortalities (number of deaths/number exposed) (both, Crl:CD(SD)): 0/4 | activity level and breathing rate: decreased | bodyweight loss: 3 gram | clinical signs after exposure: no abnormal clinical signs | clinical signs of toxicity: no clinical signs of toxicity | startle response after exposure: normal startle response | startle response during the exposure: normal startle responses | state and response to sound stimulus: prostrate and unresponsive to sound stimulus
